Test results from patent publication US12303474B2, “S-enantiomerically enriched compositions of beta blockers for treating amyotrophic lateral sclerosis” (priority 2013, dated 2025).
Where two headings read alike, the source gives them in different places.

Legend:
[1] = system: G93A SOD1 B6SJL hybrid (G93A) model; assay: Body weight and body composition (lean mass, fat mass; NMR scans) in G93A SOD1 transgenic mice; type: in vivo; conditions: 30 mg/kg/d; for Average Δ body weight / Average Δ fat mass / Average Δ lean mass: per day alive after disease onset
Description: (§1) Transgenic mice over-expressing a high copy number (25 copies) of mutated human SOD1 gene with a G93A point mutation, i.e., B6SJL-TgN [SOD1-G93A]1 Gur (G1H-G93A transgenic mice, JR2726; Hemizygote) (Gurney M E, et al., Science, 264, 1772-1775, 1994) (“G93A SOD1 B6SJL hybrid (G93A) model”), were used.
[…] […] There were 16 mice in the S-oxprenolol group.
The primary endpoint was survival, humanely defined as the ability of the animal to right itself in 30 seconds after being laid on its side. Secondary endpoints were body weight, body composition, spontaneous activity and food intake. Body weight of the animals was assessed weekly until onset of disease. Additionally, body composition (fat mass and lean body mass) was assessed using NMR scans (EchoMRI-100, Echo Medical Systems, Houston, USA) every 4 days. After onset of disease, body weight and body composition were assessed every two days until the end of the study. All personal handling the animals was strictly blinded to the randomized treatment allocation.
To study the effect of S-oxprenolol on body weight, body weight was monitored over time.
To study the effect of the test compounds on lean body mass, lean mass was determined at the end of the study.
To study the effect of the test compounds on fat mass, the fat mass were determined at the end of the study.
To study the effect of S-oxprenolol on body weight, body weight was monitored over time. […] The number of all mice in the population is indicated as “n” in at the bottom of FIGS. 20A-20C.
To study the effect of the test compounds on lean body mass, lean mass was determined at the end of the study. […] The number of all mice in the population is indicated as “n” in at the bottom of FIGS. 20D-20F.
To study the effect of the test compounds on fat mass, the fat mass were determined at the end of the study. […] The number of all mice in the population is indicated as “n” in at the bottom of FIGS. 20G-20I.

[2] = system: G93A SOD1 B6SJL hybrid (G93A) model; assay: Disease progression score (JAX SOP) in G93A SOD1 transgenic mice; conditions: 30 mg/kg/day vs. placebo
Description: The disease progression score is based on the JAX SOP (Ludolph A C, Bendotti C, Blaugrund E, Hengerer B, Loffler J P, Martin J, Meininger V, Meyer T, Moussaoui S, Robberecht W, Scott S, Silani V, Van Den Berg L H (ENMC Group For The Establishment Of Guidelines For The Conduct Of Preclinical And Proof Of Concept Studies In ALS/MND Models). 2007, which is incorporated by reference).

[3] = system: G93A SOD1 B6SJL hybrid (G93A) model; conditions: 30 mg/kg/d; for Heart / gastrocnemius: end of study
Description: as §1
To study the effect of the test compounds on skeletal muscle atrophy, the skeletal muscle mass were determined at the end of the study.
The number of all mice in the population is indicated as “n” in at the bottom of FIGS. 21A-21C.
The number of all mice in the population is indicated as “n” in at the bottom of FIGS. 20D-20F.
The number of all mice in the population is indicated as “n” in at the bottom of FIGS. 21G-21I.

Nc1nc2ccc(OC(F)(F)F)cc2s1 [rilutek]
Δ body weight ([1]; all mice): -5.10 ± 0.35 g | Δ fat mass ([1]; all mice): -1.91 ± 0.15 g | Δ lean mass ([1]; all mice): -3.71 ± 0.27 g | Average Δ body weight ([1]; all mice): -121.6 ± 15.2 mg/day | Average Δ fat mass ([1]; all mice): -50.1 ± 6.1 mg/day | Average Δ lean mass ([1]; all mice): -92.31 ± 15.84 mg/day | Δ body weight ([1]; female mice): -4.49 ± 0.46 g | Δ fat mass ([1]; female mice): -1.76 ± 0.21 g | Δ lean mass ([1]; female mice): -3.31 ± 0.37 g | Average Δ body weight ([1]; female mice): -122.9 ± 25.7 mg/day | Average Δ fat mass ([1]; female mice): -42.2 ± 6.1 mg/day | Average Δ lean mass ([1]; female mice): -96.9 ± 24.2 mg/day | Δ body weight ([1]; male mice): -5.91 ± 0.43 g | Δ fat mass ([1]; male mice): -2.09 ± 0.22 g | Δ lean mass ([1]; male mice): -4.19 ± 0.38 g | Average Δ body weight ([1]; male mice): -120.4 ± 17.9 mg/day | Average Δ fat mass ([1]; male mice): -57.5 ± 11.3 mg/day | Average Δ lean mass ([1]; male mice): -87.4 ± 21.1 mg/day | HR Progression from score 1 to score 2 (FIG. 17) [2]: 0.82 | HR Progression from score 1 to score 3 (FIG. 19) [2]: 0.76 | HR Progression from score 2 to score 3 (FIG. 18) [2]: 0.68 | EDL (extensor digitorum longus) ([3]; all mice): 6.71 ± 0.32 mg | soleus ([3]; all mice): 5.47 ± 0.39 mg | Heart ([3]; all mice): 103.5 ± 2.8 mg | gastrocnemius ([3]; all mice): 55.2 ± 3.0 mg | EDL (extensor digitorum longus) ([3]; female mice): 6.28 ± 039 mg | soleus ([3]; female mice): 5.26 ± 0.48 mg | Heart ([3]; female mice): 91.4 ± 2.3 mg | gastrocnemius ([3]; female mice): 54.1 ± 3.8 mg | EDL (extensor digitorum longus) ([3]; male mice): 7.20 ± 0.51 mg | soleus ([3]; male mice): 5.72 ± 0.64 mg | Heart ([3]; male mice): 115.6 ± 2.4 mg | gastrocnemius ([3]; male mice): 58.3 ± 4.9 mg
